Consider 24 compounds from patent publication US20250228242A1 (priority 2021, published 2025).

Where a name gives a salt, the structure may show the parent alone. Bounds are passed on as bounds.

Test [1] concerns Albugo laibachii. Kind of test: Albugo laibachii on A. thaliana, syringe infiltration of compound, visual scoring of disease severity. The conditions noted are these: in Arabidopsis thaliana, 100 μM in 1% DMSO syringe infiltrated into adult A. thaliana, visually scored at nine dpi, read-out: A. laibachii Inhibitory effect. The test is classed as in vivo. On the procedure:
A. thaliana seeds were stratified on moist soil (Einheitserde type A240, Stender, Germany) for seven days at 4° C. in darkness, before transfer into growth chambers with short day conditions (10 h light, 14 h darkness, 23/20° C., 60% humidity). After three weeks, seedlings were singularised and grown for three weeks further. After six weeks, A. thaliana plants were used for experiments and after infection they were transferred into SANYO (Panasonic MLR-352, Japan) growth cabinets (10 h light, 14 h darkness, 22/16° C.). Potato plants were grown from tubers by covering them with soil (Einheitserde type A240, Stender, Germany). The leaves of adult plants (˜4-6 weeks old) were cut off and kept in a moist environment for infection assays.
For regular Albugo sp. infections A. thaliana Ws-0 was sprayed with an Albugo sp. conidiospores solution. These spore solutions were prepared by harvesting sporulating leaf material at 14 days post infection (dpi) and adding water for rehydration of the spores. Spore solutions were hold on ice for ˜1 h, before filtering through miracloth (Merck Millipore, Germany) to remove dirt. Spores were counted and the solutions diluted to 22.2×10^4 conidiospores/ml. Albugo sp. spore solutions were sprayed uniformly on A. thaliana leaves (4.5 ml per six plants) using an airbrush gun. During spraying, plants were placed in a plastic bag and afterwards transferred into a cold room to incubate at 4° C. in darkness (˜16 h). The next morning, plants were transferred into plant growth cabinets, but left in clear bags to keep humidity high, which supports Albugo sp. infections. ˜24 h later plants were unbagged and further incubated under normal plant growth conditions.
Afterwards, the plants were kept in the lab for ˜1 h to let the leaves equilibrate again. The infiltrated plants were infected with Albugo sp., following the above-mentioned protocol. At 7 dpi, infiltrated leaves were phenotypically scored and harvested. The samples were frozen in liquid nitrogen and stored at −80° C. until DNA extraction for growth quantification via qPCR. For experiment 4, A. candida spore solutions were prepared as before and mixed with 10 mM stock solution of the test compound (100 μM end conc.). The mixture of spore solution and test compound was sprayed and incubated as for experiment 2 and 3.
• Fungicidal activity against other oomycetes was tested using isolates of the obligate biotrophic pathogen genus Albugo on Arabidopsis thaliana. The test compounds, 100 μM in 1% DMSO, were syringe infiltrated into adult A. thaliana and subsequently sprayed with aqueous spore solutions of Albugo laibachii or A. candida. In primary screenings, disease severity was visually screened and scored at nine days post infection (dpi) (Table 2+3).

Test [2] concerns Pseudomonas syringae pv. tomato (Pto) DC3000. The test can be described thus: Bacterial liquid culture growth curves (OD600), Pto DC3000. The conditions noted are these: 18.5 h, read-out: Absolute growth rate relative to mock control, Pto DC3000.
The subject of the next test is Rhodococcus sp. The test can be described thus: Bacterial liquid culture growth curves (OD600), Rhodococcus sp. The conditions noted are these: 18.5 h, read-out: Absolute growth rate relative to mock control, Rhodococcus sp.
The test system of a further test is Phytophthora infestans. The test can be described thus: whole plant or invertebrate. It is filed as in vivo. The following applies: in Solanum tuberosum, 120 h, read-out: P. infestans % inhibition.
For a further test, the system named is Albugo candida. Kind of test: Albugo candida growth on A. thaliana after syringe infiltration, quantified via qPCR. The test is classed as in vivo. The following applies: for inhibition at 100 µM: Albugo candida, in Arabidopsis thaliana, qPCR at 7 dpi, A. thaliana; for inhibition of A. candida growth (in words): Table 4, qPCR at 7 dpi.
Test [3] deals with Albugo laibachii. The test can be described thus: Albugo laibachii growth on A. thaliana after syringe infiltration, quantified via qPCR. The test is classed as in vivo. The conditions noted are these: for inhibition at 100 µM: Albugo laibachii, in Arabidopsis thaliana, qPCR at 7 dpi, A. thaliana. On the technique in general: Real-time PCR tracks product formation cycle by cycle.

The subject of the next test is P. infestans. The test can be described thus: whole plant or invertebrate. It is filed as in vivo. The conditions noted are these: Phytophthora infestans, in Solanum tuberosum, read-out: P. infestans % inhibition.

Take `Oc1ccc(-c2cc(-c3cccc(Br)c3)[nH]n2)cc1O` [Compound 4, 5-(3-Bromophenyl)-3-(3,4-dihydroxyphenyl)-1H-pyrazole]: the inhibition at 100 µM in the test on Albugo laibachii [1] is 5 to 30%. Also, the activity at 100 µM in test [2] was 48%; in the test on Rhodococcus sp. it was -1%.
Regarding `Oc1cc(-c2cc(-c3cc(Br)cc(Br)c3)[nH]n2)cc(O)c1O` [Compound 6, 5-(3,5-Dibromophenyl)-3-(3,4,5-trihydroxyphenyl)-1H-pyrazole], the inhibition at 100 µM in the test on Albugo laibachii [1] is greater than 70%. In addition, the results for the activity at 100 µM (in test [2]; in the test with Rhodococcus sp.) were 73% and 1%, respectively.
Turning to `Fc1cccc(-c2cc(-c3ccc4c(c3)OCO4)n[nH]2)c1` [Compound 7, 3-(1,3-Benzodioxol-5-yl)-5-(3-fluorophenyl)-1H-pyrazole], the inhibition at 100 µM in the test on Albugo laibachii [1] lay in the range of 30 to 70%. For the same compound, the activity at 100 µM was found to be 98% in test [2] and 14% in the test on Rhodococcus sp..
As to `Ic1cccc(-c2cc(-c3ccc4c(c3)OCO4)n[nH]2)c1` [Compound 8, 3-(1,3-Benzodioxol-5-yl)-5-(3-iodophenyl)-1H-pyrazole], in the test on Albugo laibachii [1], the inhibition at 100 µM was 5 to 30%. For the same compound, the activity at 100 µM was found to be 100% in test [2] and 35% with Rhodococcus sp..
For `COc1cccc(-c2cc(-c3ccc4c(c3)OCO4)n[nH]2)c1` [Compound 9, 3-(1,3-Benzodioxol-5-yl)-5-(3-methoxyphenyl)-1H-pyrazole] the same measures were 30 to 70%, 100% and 8%.
Take `Brc1ccccc1-c1cc(-c2ccc3c(c2)OCO3)n[nH]1` [Compound 10, 3-(1,3-Benzodioxol-5-yl)-5-(2-bromophenyl)-1H-pyrazole]: the inhibition at 100 µM was determined as 82% in the test with Phytophthora infestans, 68% in the test on Albugo candida and 36% in the test on Albugo laibachii [3]. Moreover, in the test on Albugo candida, the “inhibition of A. candida growth (in words)” value is recorded as “strong inhibition”. In addition, the activity at 100 µM was 111% in test [2] and 24% in the test on Rhodococcus sp..
Regarding `FC(F)(F)c1cccc(-c2cc(-c3ccc4c(c3)OCO4)n[nH]2)c1` [Compound 11, 3-(1,3-Benzodioxol-5-yl)-5-[3-(trifluoromethyl)phenyl]-1H-pyrazole], the inhibition at 100 µM in the test on Albugo laibachii [1] lay in the range of 5 to 30%. Further, the activity at 100 µM in test [2] amounted to 81%; with Rhodococcus sp. it was 110%.
With `Oc1ccc(-c2cc(-c3cccc(C(F)(F)F)c3)[nH]n2)cc1O` [Compound 12, 3-(3,4-Dihydroxyphenyl)-5-[3-(trifluoromethyl)phenyl]-1H-pyrazole], the inhibition at 100 µM with Phytophthora infestans stood at 76%. Moreover, the results for the activity at 100 µM (in test [2]; with Rhodococcus sp.) were 104% and -1%, respectively.
In the case of `CN(C)c1ccc(-c2cc(-c3cccc(Br)c3)[nH]n2)cc1` [Compound 13, 5-(3-Bromophenyl)-3-[4-(dimethylamino)phenyl]-1H-pyrazole], the inhibition at 100 µM with Albugo laibachii [1] was greater than 70%.
With `CN(C)c1cccc(-c2cc(-c3ccc4c(c3)OCO4)n[nH]2)c1` [Compound 14, 3-[3-(1,3-benzodioxol-5-yl)-1H-pyrazol-5-yl]-N,N-dimethylaniline], the inhibition at 100 µM with Phytophthora infestans was determined as 71%. Moreover, the activity at 100 µM was 100% in test [2] and 11% in the test with Rhodococcus sp..
As to `Oc1ccc(-c2cc(-c3cccc(F)c3)[nH]n2)cc1O` [Compound 16, 3-(3,4-Dihydroxyphenyl)-5-(3-fluorophenyl)-1H-pyrazole], in the test on Albugo laibachii [1], the inhibition at 100 µM lay in the range of 30 to 70%. Besides, the activity at 100 µM turned out to be 66% in test [2] and 0% with Rhodococcus sp..
For `Oc1ccc(-c2cc(-c3cccc(F)c3)on2)cc1O` [Compound 21, 3-(3,4-Dihydroxyphenyl)-5-(3-fluorophenyl)isoxazole], in the test on Phytophthora infestans, the inhibition at 100 µM was determined as 70%. Besides, the activity at 100 µM in test [2] was 93%; in the test on Rhodococcus sp. it was 2%.
For `Oc1ccc(-c2noc(-c3cccc(F)c3)n2)cc1O` [Compound 25, 3-(3,4-Dihydroxyphenyl)-5-(3-fluorophenyl)-1,2,4-oxadiazole] the same measures were 79%, 105% and 1%.
For `Oc1ccc(-c2cc(-c3ccc(O)c(O)c3)[nH]n2)cc1O` [Compound 27, 3,5-Bis(3,4-Dihydroxyphenyl)-1H-pyrazole hydrobromide] the same measures were 62%, 77% and 98%.
Take `COc1ccc(-c2cc(-c3cccc(Br)c3)[nH]n2)cc1OC` [Compound 29, 5-(3-Bromophenyl)-3-(3,4-dimethoxyphenyl)-1H-pyrazole]: the inhibition at 100 µM in the test on Albugo laibachii [1] lay within 30 to 70%. Moreover, the activity at 100 µM stood at 88% in test [2] and 62% in the test with Rhodococcus sp..
In the case of `COc1ccc(-c2c[nH]c(-c3ccc(OC)c(OC)c3)n2)cc1OC` [Compound 30, 2,4-Bis(3,4-dimethoxyphenyl)-1H-imidazole], the inhibition at 100 µM with Phytophthora infestans was 46%. The activity at 100 µM in test [2] was 109%; in the test on Rhodococcus sp., 35%.
For `COc1ccc(-c2cc(-c3ccc(O)cc3)[nH]n2)cc1OC` [Compound 32, 3-(3,4-Dimethoxyphenyl)-5-(4-hydroxyphenyl)-1H-pyrazole], the inhibition at 100 µM in the test on Phytophthora infestans was 77%. For the same compound, the activity at 100 µM amounted to 90% in test [2] and 10% in the test with Rhodococcus sp..
As to `COc1ccc(-c2cc(-c3cccc(O)c3)[nH]n2)cc1OC` [Compound 33, 3-(3,4-Dimethoxyphenyl)-5-(3-hydroxyphenyl)-1H-pyrazole], the inhibition at 100 µM came out at 85% in the test with Phytophthora infestans and 84% with P. infestans. The figures for the activity at 100 µM (in test [2]; in the test with Rhodococcus sp.) were 90% and 6%, respectively.
Take `Oc1cccc(-c2cc(-c3ccc4c(c3)OCO4)n[nH]2)c1` [Compound 34, 3-(1,3-Benzodioxol-5-yl)-5-(3-hydroxyphenyl)-1H-pyrazole]: the inhibition at 100 µM in the test with Albugo laibachii [1] fell in the range of 30 to 70%. Also, the activity at 100 µM is 56% in test [2] and -1% in the test with Rhodococcus sp..
Taken in the same sequence, the figures for `Clc1cccc(-c2cc(-c3ccc4c(c3)OCO4)n[nH]2)c1` [Compound 35, 3-(1,3-Benzodioxol-5-yl)-5-(3-chlorophenyl)-1H-pyrazole] were 30 to 70%, 85% and 11%.
As for `Brc1ccc(-c2cc(-c3ccc4c(c3)OCO4)n[nH]2)cc1` [Compound 38, 3-(1,3-Benzodioxol-5-yl)-5-(4-bromophenyl)-1H-pyrazole], the results for the inhibition at 100 µM in the test with Albugo laibachii [1], with Albugo candida and with Albugo laibachii [3] were greater than 70%, 53% and 50%, respectively. Besides, the “inhibition of A. candida growth (in words)” value in the test with Albugo candida was “strong inhibition”. Further, the “inhibition of A. laibachii growth (in words)” value with Albugo laibachii [3] (Table 4, qPCR at 7 dpi, p 5 0.05) is on record as “significantly inhibited”.
For `Nc1ccc(-c2cc(-c3cccc(Cl)c3)[nH]n2)cc1` [Compound 39, 3-(4-Aminophenyl)-5-(3-chlorophenyl)-1H-pyrazole], the inhibition at 100 µM in the test on Albugo laibachii [1] lay in the range of 30 to 70%. The activity at 100 µM in test [2] was 94%; in the test with Rhodococcus sp. it was -1%.
For the compound `Nc1ccc(-c2cc(-c3cccc(Br)c3)[nH]n2)cc1` [Compound 40, 3-(4-Aminophenyl)-5-(3-bromophenyl)-1H-pyrazole], the inhibition at 100 µM with Albugo laibachii [1] was greater than 70%. The results for the activity at 100 µM (in test [2]; in the test on Rhodococcus sp.) were 91% and -1%, respectively.
Taken in the same sequence, the figures for `Cn1nc(-c2ccc3c(c2)OCO3)cc1-c1cccc(Br)c1` [Compound 41, 3-(1,3-Benzodioxol-5-yl)-5-(3-bromophenyl)-1-methyl-1H-pyrazole] were 30 to 70%, 106% and 62%.
